Measurements taken from US9796711B2, “Substituted pyrazolo[3,4-b]pyridin-6-carboxylic acids and method of use” (AbbVie S.àr.l., priority 2015, dated 2017).

Columns and labels:
[1] = molecular target: T1, ΔF508-CFTR (Homo sapiens, UniProt P13569, DEL508-508); test: CFTR cell surface levels using HRP-tagged ΔF508-CFTR expressing CFBE cells, in the presence of a co-corrector; assay type: cell-based; conditions: HRP-tagged ΔF508-CFTR expressing CFBE cells, in the presence of 3 μM co-corrector; for EC50: read-out: EC50
T1 construct: host or cells: CFBE41o-, doxycycline-inducible
T1 sequence (P13569 with tags, fused parts or gaps DEL508-508): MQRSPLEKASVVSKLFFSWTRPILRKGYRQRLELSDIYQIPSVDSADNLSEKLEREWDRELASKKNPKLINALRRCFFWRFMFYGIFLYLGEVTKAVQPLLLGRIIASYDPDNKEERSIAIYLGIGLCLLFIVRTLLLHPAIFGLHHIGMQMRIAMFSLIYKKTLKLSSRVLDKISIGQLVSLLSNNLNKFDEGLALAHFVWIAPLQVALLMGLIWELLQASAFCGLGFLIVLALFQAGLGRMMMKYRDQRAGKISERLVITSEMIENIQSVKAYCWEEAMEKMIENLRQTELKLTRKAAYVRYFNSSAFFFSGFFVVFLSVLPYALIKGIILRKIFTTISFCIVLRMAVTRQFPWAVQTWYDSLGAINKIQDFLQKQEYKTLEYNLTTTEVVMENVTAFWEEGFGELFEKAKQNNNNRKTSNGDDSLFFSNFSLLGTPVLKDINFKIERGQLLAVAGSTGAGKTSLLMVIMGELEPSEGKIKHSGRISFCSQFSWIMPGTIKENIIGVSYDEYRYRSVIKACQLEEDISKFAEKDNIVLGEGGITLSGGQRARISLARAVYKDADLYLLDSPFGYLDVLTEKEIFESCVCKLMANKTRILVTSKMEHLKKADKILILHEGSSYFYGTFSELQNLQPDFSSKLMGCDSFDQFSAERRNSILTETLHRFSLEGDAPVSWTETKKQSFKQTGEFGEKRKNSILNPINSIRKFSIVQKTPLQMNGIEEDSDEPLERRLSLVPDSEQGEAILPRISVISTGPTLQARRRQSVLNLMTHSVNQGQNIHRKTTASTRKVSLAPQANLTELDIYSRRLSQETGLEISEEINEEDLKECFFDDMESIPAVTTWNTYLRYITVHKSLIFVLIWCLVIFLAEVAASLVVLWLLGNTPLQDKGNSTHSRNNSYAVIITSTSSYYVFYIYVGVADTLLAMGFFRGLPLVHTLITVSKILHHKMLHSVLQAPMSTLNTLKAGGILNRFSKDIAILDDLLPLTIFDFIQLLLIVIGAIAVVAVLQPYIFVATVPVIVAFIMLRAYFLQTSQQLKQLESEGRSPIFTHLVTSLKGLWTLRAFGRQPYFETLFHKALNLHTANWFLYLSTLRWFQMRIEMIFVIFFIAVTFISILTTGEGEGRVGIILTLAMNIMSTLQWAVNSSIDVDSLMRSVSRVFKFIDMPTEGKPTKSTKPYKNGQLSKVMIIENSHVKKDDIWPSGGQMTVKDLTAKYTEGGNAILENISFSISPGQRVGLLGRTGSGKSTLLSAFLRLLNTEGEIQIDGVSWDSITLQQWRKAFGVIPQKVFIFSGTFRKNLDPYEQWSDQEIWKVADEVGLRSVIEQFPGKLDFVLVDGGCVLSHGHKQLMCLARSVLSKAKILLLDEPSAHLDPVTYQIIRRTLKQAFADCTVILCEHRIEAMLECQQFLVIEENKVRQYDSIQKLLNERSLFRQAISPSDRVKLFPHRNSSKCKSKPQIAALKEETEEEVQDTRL
Summary of the method: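 Cells were seeded with 0.5 μg/mL doxycycline and held 68 h at 37 °C. Test compounds plus 3 μM co-corrector (final 0.1% DMSO) were then added for 20 h at 33 °C. Washed cells received HRP substrate, and luminescence was normalized between DMSO and 3 μM co-corrector controls.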

[2] = molecular target: T1, ΔF508-CFTR; test: CFTR cell surface levels using HRP-tagged ΔF508-CFTR expressing CFBE cells, intrinsic corrector capacity; assay type: cell-based; conditions: HRP-tagged ΔF508-CFTR CFBE41o- cells, compounds alone (intrinsic corrector capacity), 20 hours at 33° C.; for % Activation: positive control 3 μM corrector; for EC50: read-out: EC50
Summary of the method: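 Here the cells express ΔF508-CFTR with horseradish peroxidase inserted in extracellular loop 4, so only rescued channel at the surface gives luminescent signal. Compounds act on their own, 20 h at the reduced temperature of 33 °C; values are percent activity relative to DMSO and a 3 μM corrector.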

SMILES | % Activation [1] [%] | EC50 [1] [nM] | % Activation [2] [%] | EC50 [2] [nM]
CC(C)c1nn(-c2ccc(F)c(F)c2)c2nc(C(=O)O)cc(-c3ccc(N4CCC(C#N)CC4)nc3)c12 [compound 279, 4-[6-(4-cyanopiperidin-1-yl)pyridin-3-yl]-1-(3,4-difluorophenyl)-3-(propan-2-yl)-1H-pyrazolo[3,4-b]pyridine-6-carboxylic acid] | 427.65 | 499 | 257.8 | 900
CC(C)c1nn(-c2ccc(F)cc2)c2nc(C(=O)O)cc(-c3cnc(N(C)C4CCOCC4)nc3)c12 [compound 280, 1-(4-fluorophenyl)-4-{2-[methyl(oxan-4-yl)amino]pyrimidin-5-yl}-3-(propan-2-yl)-1H-pyrazolo[3,4-b]pyridine-6-carboxylic acid] | 440.83 | 249 | 238.6 | 485
CC(C)c1nn(-c2cccc(C(F)(F)F)c2)c2nc(C(=O)O)cc(-c3cnc(N(C)C4CCOCC4)nc3)c12 [compound 281, 4-{2-[methyl(oxan-4-yl)amino]pyrimidin-5-yl}-3-(propan-2-yl)-1[3-(trifluoromethyl)phenyl]-1H-pyrazolo[3,4-b]pyridine-6-carboxylic acid] | 425.85 | 908 | 226.7 | 1290
CC(C)c1nn(-c2cc(F)cc(F)c2)c2nc(C(=O)O)cc(-c3ccc(N4CCC(C#N)CC4)cc3)c12 [compound 282, 4-[4-(4-cyanopiperidin-1-yl)phenyl]-1-(3,5-difluorophenyl)-3-(propan-2-yl)-1H-pyrazolo[3,4-b]pyridine-6-carboxylic acid] | 476.23 | 341 | 269.33 | 492
CC(C)c1nn(-c2cccc(F)c2)c2nc(C(=O)O)cc(-c3ccc(N(C)C4CCOCC4)nc3)c12 [compound 283, 1-(3-fluorophenyl)-4-{6-[methyl(oxan-4-yl)amino]pyridin-3-yl}-3-(propan-2-yl)-1H-pyrazolo[3,4-b]pyridine-6-carboxylic acid] | 435.2 | 367 | 233.17 | 649
CC(C)c1nn(-c2cccc(F)c2)c2nc(C(=O)O)cc(-c3ccc(N(C)C4CCOCC4)cc3)c12 [compound 284, 1-(3-fluorophenyl)-4-{4-[nethyl(oxan-4-yl)amino]phenyl}-3-(propan-2-yl)-1H-pyrazolo[3,4-b]pyridine-6-carboxylic acid] | 435.23 | 282 | 240.8 | 501
CC(C)c1nn(-c2cccc(F)c2)c2nc(C(=O)O)cc(-c3ccc(N4CCC(C#N)CC4)nc3)c12 [compound 285, 4-[6-(4-cyanopiperidin-1-yl)pyridin-3-yl]-1-(3-fluorophenyl)-3-(propan-2-yl)-1H-pyrazolo[3,4-b]pyridine-6-carboxylic acid] | 428 | 261 | 255.73 | 655
CC(C)c1nn(-c2cccc(F)c2)c2nc(C(=O)O)cc(-c3ccc(N4CCC(C#N)CC4)cc3)c12 [compound 286, 4-[4-(4-cyanopiperidin-1-yl)phenyl]-1-(3-fluorophenyl)-3-(propan-2-yl)-1H-pyrazolo[3,4-b]pyridine-6-carboxylic acid] | 448.23 | 256 | 259.83 | 544
CC(C)c1nn(-c2cccc(C(F)(F)F)c2)c2nc(C(=O)O)cc(-c3ccc(N(C)C4CCOCC4)nc3)c12 [compound 287, 4-{6-[methyl(oxan-4-yl)amino]pyridin-3-yl}-3-(propan-2-yl)-1[3-(trifluoromethyl)phenyl]-1H-pyrazolo[3,4-b]pyridine-6-carboxylic acid] | 464.35 | 429 | 234.95 | 535
Cc1nn(-c2ccccc2)c2nc(C(=O)O)cc(N3CCC4(CC3)CN(C)C(=O)CO4)c12 [compound 288, 3-methyl-4-(4-methyl-3-oxo-1-oxa-4,9-diazaspiro[5.5]undecan-9-yl)-1-phenyl-1H-pyrazolo[3,4-b]pyridine-6-carboxylic acid] | 128 | 7500 | 20.49 | 7500
COCC1(C)CN(c2cc(C(=O)O)nc3c2c(C)nn3-c2ccccc2)C1 [compound 289, 4-[3-(methoxymethyl)-3-methylazetidin-1-yl]-3-methyl-1-phenyl-1H-pyrazolo[3,4-b]pyridine-6-carboxylic acid] | 172.8 | 1830 | 46.35 | 2510
Cc1nn(-c2ccccc2)c2nc(C(=O)O)cc(N3CC4CNCCN4C3=O)c12 (stereo not drawn) [compound 290, 3-methyl-4-(3-oxohexahydroimidazo[1,5-a]pyrazin-2(3H)-yl)-1-phenyl-1H-pyrazolo[3,4-b]pyridine-6-carboxylic acid] | 127.35 | 7500 | 12.145 | 7500
COCC1CCN(c2cc(C(=O)O)nc3c2c(C)nn3-c2ccccc2)CC1 [compound 291, 4-[4-(methoxymethyl)piperidin-1-yl]-3-methyl-1-phenyl-1H-pyrazolo[3,4-b]pyridine-6-carboxylic acid] | 349.55 | 1400 | 168.85 | 1710
CC(=O)NC1CCN(c2cc(C(=O)O)nc3c2c(C)nn3-c2ccccc2)CC1 [compound 292, 4-(4-acetamidopiperidin-1-yl)-3-methyl-1-phenyl-1H-pyrazolo[3,4-b]pyridine-6-carboxylic acid] | 141.1 | 4170 | 15.095 | 7500
Cc1nn(-c2ccccc2)c2nc(C(=O)O)cc(N3CC4(CCOCC4)C3)c12 [compound 293, 3-methyl-4-(7-oxa-2-azaspiro[3.5]nonan-2-yl)-1-phenyl-1H-pyrazolo[3,4-b]pyridine-6-carboxylic acid] | 264.9 | 2510 | 90.275 | 2510
COCC1CN(c2cc(C(=O)O)nc3c2c(C)nn3-c2ccccc2)C1 [compound 294, 4-[3-(methoxymethyl)azetidin-1-yl]-3-methyl-1-phenyl-1H-pyrazolo[3,4-b]pyridine-6-carboxylic acid] | 225.5 | 2510 | 73.275 | 2510
CO[C@@H]1CCN(c2cc(C(=O)O)nc3c2c(C)nn3-c2ccccc2)C1 [compound 295, 4-[(3R)-3-methoxypyrrolidin-1-yl]-3-methyl-1-phenyl-1H-pyrazolo[3,4-b]pyridine-6-carboxylic acid] | 172.1 | 2510 | 46.475 | 2510
CO[C@H]1CCN(c2cc(C(=O)O)nc3c2c(C)nn3-c2ccccc2)C1 [compound 296, 4-[(3S)-3-methoxypyrrolidin-1-yl]-3-methyl-1-phenyl-1H-pyrazolo[3,4-b]pyridine-6-carboxylic acid] | 164 | 2510 | 29.42 | 4170
Cc1nn(-c2ccccc2)c2nc(C(=O)O)cc(N3CCC(F)CC3)c12 [compound 297, 4-(4-fluoropiperidin-1-yl)-3-methyl-1-phenyl-1H-pyrazolo[3,4-b]pyridine-6-carboxylic acid] | 184.07 | 3340 | 50.78 | 2230
Cc1nn(-c2ccccc2)c2nc(C(=O)O)cc(N3CC[C@@H](F)C3)c12 [compound 298, 4-[(3R)-3-fluoropyrrolidin-1-yl]-3-methyl-1-phenyl-1H-pyrazolo[3,4-b]pyridine-6-carboxylic acid] | 206.45 | 2440 | 52.345 | 2510
Cc1nn(-c2ccccc2)c2nc(C(=O)O)cc(N3CCC(F)(F)C3)c12 [compound 299, 4-(3,3-difluoropyrrolidin-1-yl)-3-methyl-1-phenyl-1H-pyrazolo[3,4-b]pyridine-6-carboxylic acid] | 194.8 | 2510 | 51.845 | 2510
Cc1nn(-c2ccccc2)c2nc(C(=O)O)cc(N3CC[C@H](F)C3)c12 [compound 300, 4-[(3S)-3-fluoropyrrolidin-1-yl]-3-methyl-1-phenyl-1H-pyrazolo[3,4-b]pyridine-6-carboxylic acid] | 165 | 2510 | 41.065 | 2510
Cc1nn(-c2ccccc2)c2nc(C(=O)O)cc(N3CCN4C(=O)OCC4C3)c12 (stereo not drawn) [compound 301, 3-methyl-4-(3-oxotetrahydro-3H-[1,3]oxazolo[3,4-a]pyrazin-7(1H)-yl)-1-phenyl-1H-pyrazolo[3,4-b]pyridine-6-carboxylic acid] | 117.35 | 7500 | 12.64 | 7500
Cc1nn(-c2ccccc2)c2nc(C(=O)O)cc(N3CC(N4CCOCC4)C3)c12 [compound 302, 3-methyl-4-[3-(morpholin-4-yl)azetidin-1-yl]-1-phenyl-1H-pyrazolo[3,4-b]pyridine-6-carboxylic acid] | 131.6 | 7500 | 18.02 | 7500
